Experimental data: patent US11198694B2, “HDAC6 inhibitors, with improved solubility and their uses” (UNIVERSITÄT REGENSBURG, priority 2017, dated 2021)

Experiments:
Solubility in H2O = type: physicochemical; conditions: water
human HDAC2 = molecular target: T1, human HDAC2 (Homo sapiens, UniProt Q92769); test: Fluorescence HDAC enzyme inhibition assay (Reaction Biology Corporation); type: biochemical
T1 construct: purchased Reaction Biology Corporation HDAC2
Procedure: (§1) The IC50 values for the various inhibitors against the isoenzymes of HDAC were measured by Reaction Biology Corporation (Malvern, Pa., USA) (Buffer, Kalin et al. 2010): For the enzyme inhibition assay, human recombinant protein material was used (human HDAC2 (CAT #: HDAC2), human HDAC6 (CAT #: HDAC6) or human HDAC8 (CAT #: HDAC8)). A 10-point dose response curve was prepared using a 3-fold dilution series (1:3), started at a concentration of 1 μM in DMSO for the synthesized drugs and 10 μM in DMSO for the reference substance Trichostatin A231 (TSA, for HDAC 2, 6 and 8). Reaction time was 90 minutes at 37° C. in a volume of 50 μL in a 96 well plate. Reaction buffer: 50 mM Tris-HCl, pH=8.0, 137 mM NaCl, 2.7 mM KCl, and 1 mM MgCl2 freshly added: 1 mg/ml bovine serum albumin. The fluorescence was measured using a fluoroscope Ascent™ FL fluorometer. The percent enzyme activity was calculated relative to the DMSO control. IC50 values were calculated using GraphPad Prism (GraphPad Prism 4.0 Software, San Diego, USA) based on a sigmoidal dose-response equation.
(§2) HDAC enzyme inhibition assays were conducted by Reaction Biology Corporation (Malvern, Pa., USA) using a ten point dose response curve with half-log serial dilutions, fluorogenic peptides at 50 μM as enzymatic substrates. Substrate for HDAC 2 and 6: fluorogenic peptide from p53 residues 379-382 (RHKK(Ac)AMC). Substrate for HDAC-8: fluorogenic peptide from p53 residues 379-382 (RHK(Ac)K(Ac)AMC).

human HDAC6 = molecular target: T2, human HDAC6 (Homo sapiens, UniProt Q9UBN7); test: as above; type: biochemical
T2 construct: purchased Reaction Biology Corporation HDAC6
T2 sequence (Q9UBN7 1-1215): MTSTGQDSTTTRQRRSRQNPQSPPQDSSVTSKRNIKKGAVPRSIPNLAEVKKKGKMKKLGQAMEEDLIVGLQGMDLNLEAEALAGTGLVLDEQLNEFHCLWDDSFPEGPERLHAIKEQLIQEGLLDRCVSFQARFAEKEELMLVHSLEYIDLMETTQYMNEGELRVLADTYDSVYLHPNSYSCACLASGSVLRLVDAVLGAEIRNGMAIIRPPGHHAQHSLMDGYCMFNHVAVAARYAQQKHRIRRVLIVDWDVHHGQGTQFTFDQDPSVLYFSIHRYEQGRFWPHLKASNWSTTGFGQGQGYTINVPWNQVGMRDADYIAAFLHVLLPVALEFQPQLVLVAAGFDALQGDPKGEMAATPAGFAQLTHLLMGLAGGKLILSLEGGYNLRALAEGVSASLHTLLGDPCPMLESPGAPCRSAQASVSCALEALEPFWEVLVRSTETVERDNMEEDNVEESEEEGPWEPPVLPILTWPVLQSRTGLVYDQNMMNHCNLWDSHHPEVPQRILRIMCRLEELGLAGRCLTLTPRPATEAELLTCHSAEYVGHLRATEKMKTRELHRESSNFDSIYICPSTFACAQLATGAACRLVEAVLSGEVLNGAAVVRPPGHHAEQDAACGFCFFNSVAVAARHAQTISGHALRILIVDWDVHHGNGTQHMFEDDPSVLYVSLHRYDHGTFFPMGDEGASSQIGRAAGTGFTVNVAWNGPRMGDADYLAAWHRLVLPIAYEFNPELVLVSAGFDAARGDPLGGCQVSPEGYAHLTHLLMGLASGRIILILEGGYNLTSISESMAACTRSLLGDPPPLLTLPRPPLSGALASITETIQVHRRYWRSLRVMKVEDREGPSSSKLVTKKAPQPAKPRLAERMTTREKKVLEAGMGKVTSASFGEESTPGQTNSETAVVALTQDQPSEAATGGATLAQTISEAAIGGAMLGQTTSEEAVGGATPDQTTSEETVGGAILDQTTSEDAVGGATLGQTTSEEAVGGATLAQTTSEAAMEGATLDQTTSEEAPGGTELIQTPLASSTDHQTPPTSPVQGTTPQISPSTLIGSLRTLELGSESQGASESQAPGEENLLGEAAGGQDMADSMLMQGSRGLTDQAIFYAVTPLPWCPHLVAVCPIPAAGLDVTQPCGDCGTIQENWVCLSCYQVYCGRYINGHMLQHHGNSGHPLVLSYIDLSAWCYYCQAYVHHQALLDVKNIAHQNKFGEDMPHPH
Procedure: as §1, §2

human HDAC8 = molecular target: T3, human HDAC8 (Homo sapiens, UniProt Q9BY41); test: as above; type: biochemical
T3 construct: purchased Reaction Biology Corporation HDAC8
T3 sequence (Q9BY41 1-377): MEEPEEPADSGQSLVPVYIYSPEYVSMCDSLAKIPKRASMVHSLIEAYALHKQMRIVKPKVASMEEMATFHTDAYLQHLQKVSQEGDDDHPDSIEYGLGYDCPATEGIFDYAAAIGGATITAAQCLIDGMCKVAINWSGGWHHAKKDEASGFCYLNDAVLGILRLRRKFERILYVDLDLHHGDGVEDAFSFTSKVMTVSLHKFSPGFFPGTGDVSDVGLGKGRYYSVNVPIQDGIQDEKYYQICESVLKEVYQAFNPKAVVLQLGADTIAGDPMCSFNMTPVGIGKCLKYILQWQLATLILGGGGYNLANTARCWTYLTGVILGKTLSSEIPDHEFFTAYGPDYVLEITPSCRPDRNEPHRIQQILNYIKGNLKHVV
Procedure: as §1, §2

T1 sequence (Q92769 whole entry): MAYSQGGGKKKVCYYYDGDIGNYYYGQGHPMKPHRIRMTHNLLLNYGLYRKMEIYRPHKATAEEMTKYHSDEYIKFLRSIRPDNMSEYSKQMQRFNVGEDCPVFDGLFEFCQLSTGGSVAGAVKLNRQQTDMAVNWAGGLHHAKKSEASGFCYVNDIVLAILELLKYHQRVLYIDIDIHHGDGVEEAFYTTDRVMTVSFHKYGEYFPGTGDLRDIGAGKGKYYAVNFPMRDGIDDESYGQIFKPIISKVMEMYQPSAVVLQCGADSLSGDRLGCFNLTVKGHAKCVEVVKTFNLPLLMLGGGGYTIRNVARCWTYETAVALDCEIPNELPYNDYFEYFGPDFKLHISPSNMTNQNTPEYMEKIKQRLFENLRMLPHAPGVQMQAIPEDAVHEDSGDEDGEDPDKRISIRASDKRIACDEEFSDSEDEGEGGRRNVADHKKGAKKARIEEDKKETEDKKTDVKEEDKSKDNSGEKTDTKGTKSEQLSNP

Structure (SMILES)	solubility (Solubility in H2O)	IC50 (human HDAC2)	IC50 (human HDAC6)	IC50 (human HDAC8)	melting point
CN1C(=O)C2CN(Cc3c2c2ccccc2n3Cc2ccc(C(=O)NO)cc2)C1=O (stereo not drawn)	< 1000 µg/mL	–	–	–	–
CN1C(=O)[C@H]2CN(Cc3c2c2cc(OCCN4CCOCC4)ccc2n3Cc2ccc(C(=O)NO)cc2)C1=O [(R)-21, N-Hydroxy-4-(((6R)-4-methyl-8-(2-morpholinoethoxy)-3,5-dioxo-3,4,5,6-tetrahydro-2,6-methano[1,3]diazocino[5,6-b]indole-11(1B)-yl)methyl)benzamide]	–	13 µM	0.00705 µM	1.97 µM	–
CN1C(=O)[C@@H]2CN(Cc3c2c2cc(OCCN4CCOCC4)ccc2n3Cc2ccc(C(=O)NO)cc2)C1=O [(S)-21, N-Hydroxy-4-(((6S)-4-methyl-8-(2-morpholinoethoxy)-3,5-dioxo-3,4,5,6-tetrahydro-2,6-methano[1,3]diazocino[5,6-b]indole-11(1H)-yl)methyl)benzamide]	–	1.8 µM	0.00302 µM	0.364 µM	–
CN1C(=O)C2CN(Cc3c2c2cc(OCCN4CCOCC4)ccc2n3Cc2ccc(C(=O)NO)cc2)C1=O (stereo not drawn) [Compound 21, 4-(2-((11-(4-(Hydroxycarbamoyl)benzyl)-4-methyl-3,5-dioxo-1,3,4,5,6,11-hexahydro-2,6-methano[1,3]diazocino[5,6-b]indol-8-yl)oxy)ethyl)morpholin-4-ium chloride]	–	–	0.00241 ± 0.00076 µM	0.121 ± 0.01 µM	–
CN1C(=O)C2c3c(c4ccccc4n3Cc3ccc(C(=O)NO)cc3)CCN2C1=O (stereo not drawn) [Compound 41, N-Hydroxy-4-((2-methyl-1,3-dioxo-2,3,5,6-tetrahydro-1H-imidazo[1′,5′:1,2]pyrido[3,4-b]indol-11(11bH)-yl)methyl)benzamide]	–	–	0.0307 ± 0.0058 µM	0.083 ± 0.006 µM	–

Now from value to molecule:

solubility (Solubility in H2O)	IC50 (human HDAC2)	IC50 (human HDAC6)	IC50 (human HDAC8)	melting point	Structure (SMILES)
–	–	0.00899 ± 0.00111 µM	–	248.1 to 251.7 °C	CN1C(=O)C2c3c(n(Cc4ccc(C(=O)NO)cc4)c4ccccc34)CCN2C1=O (stereo not drawn) [Compound 31a, N-Hydroxy-4-((2-methyl-1,3-dioxo-2,3,5,6-tetrahydro-1H-imidazo[1′,5′:1,2]pyrido[4,3-b]indol-7(11cH)-yl)methyl)benzamide]
–	–	0.0164 ± 0.00075 µM	0.251 ± 0.0325 µM	–	CN1CC(=O)N2CCc3c(c4ccccc4n3Cc3ccc(C(=O)NO)cc3)C2C1=O (stereo not drawn) [Compound 31b, N-hydroxy-4-((2-methyl-1,4-dioxo-1,3,4,6,7,12c-hexahydropyrazino[1′,2′:1,2]pyrido[4,3-b]indol-8(2H)-yl)methyl)benzamide]
